Measured values: patent US10662187B2, “Bruton's tyrosine kinase inhibitors” (Zibo Biopolar Changsheng Pharmaceutical Co. Ltd., priority 2016, dated 2020)
Read-outs that look alike come from different tables or passages of the source.

What was measured:
Type in all cases: biochemical
LCK = LCK (Homo sapiens (Human), UniProt P06239); assay: LCK kinase assay (HTRF); settings: [ATP]=20 μM, LCK=0.2 nM
Protocol: (§1) Btk Kinase Assay and Other Kinases Assay Btk kinase activity was determined using a homogenous time resolved fluorescence (HTRF) methodology. Measurements were performed in a reaction volume of 15 μL using 384-well assay plates. Kinase enzyme, inhibitor, ATP and 1 μM peptide substrate were incubated in a reaction buffer compose of Hepes 50 mM (pH7.0), NaN3 0.02%, BSA 0.01%, Orthocanadate 0.1 mM. After one hour, the kinase reaction was quenched by the addition of […] antibody and XL-665 in 1×Detection buffer containing 60 mM EDTA (Cisbio), and the mixture was allowed to incubate for one hour. The HTRF signal was measured on a multimode plate reader (EnVision® Multilabel Reader, Perkin Elmer) with an excitation wavelength (λEx) of 330 nm and detection wavelengths (λEm) of 615 and 665 nm. Activity was determined by the ratio of the fluorescence at 665 nm to that at 615 nm. For each compound, enzyme activity as measured at various concentrations of compound, Negative control reactions were performed in the absence of inhibitor in two replicates and eight no enzyme controls were used to determine baseline fluorescence levels. I[…] were obtained according to the equation: […] For LYN assay, [ATP]=20 μM, LYN=0.12 nM. For LCK assay, [ATP]=20 μM, LCK=0.2 nM. For BLK assay, [ATP]=20 μM, BLK=0.6 nM.

BTK = BTK (Homo sapiens (Human), UniProt Q06187); assay: Btk kinase assay (HTRF); settings: [ATP]=80 μM, BTK=3.4 nM
BTK, sequence (Q06187 whole entry, species assumed): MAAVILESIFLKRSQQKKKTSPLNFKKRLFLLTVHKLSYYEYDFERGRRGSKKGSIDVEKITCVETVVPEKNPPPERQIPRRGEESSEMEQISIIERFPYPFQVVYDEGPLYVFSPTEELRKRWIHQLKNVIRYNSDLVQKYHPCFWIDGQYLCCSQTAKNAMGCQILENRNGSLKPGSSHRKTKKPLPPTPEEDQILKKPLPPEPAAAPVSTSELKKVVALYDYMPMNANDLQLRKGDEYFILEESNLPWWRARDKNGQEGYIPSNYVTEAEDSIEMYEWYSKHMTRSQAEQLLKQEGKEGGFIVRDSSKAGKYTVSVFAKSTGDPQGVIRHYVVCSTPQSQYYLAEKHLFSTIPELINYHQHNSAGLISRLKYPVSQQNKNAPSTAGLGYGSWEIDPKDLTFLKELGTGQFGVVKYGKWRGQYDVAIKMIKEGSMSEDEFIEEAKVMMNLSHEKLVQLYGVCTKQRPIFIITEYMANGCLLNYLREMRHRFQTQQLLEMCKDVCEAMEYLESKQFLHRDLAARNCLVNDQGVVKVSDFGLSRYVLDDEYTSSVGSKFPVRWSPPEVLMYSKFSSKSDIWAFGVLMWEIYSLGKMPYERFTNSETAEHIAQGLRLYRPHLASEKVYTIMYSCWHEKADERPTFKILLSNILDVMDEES
Summary of the method: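 HTRF read-out with enzyme, inhibitor, ATP and 1 μM peptide substrate in 50 mM Hepes pH 7.0, 0.02% NaN3, 0.01% BSA, 0.1 mM orthovanadate. Activity measured across compound concentrations against no-inhibitor controls, with no-enzyme wells as baseline.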

LYN = LYN (Homo sapiens (Human), UniProt P07948); assay: LYN kinase assay (HTRF); settings: [ATP]=20 μM, LYN=0.12 nM
LYN, sequence (P07948 whole entry, species assumed): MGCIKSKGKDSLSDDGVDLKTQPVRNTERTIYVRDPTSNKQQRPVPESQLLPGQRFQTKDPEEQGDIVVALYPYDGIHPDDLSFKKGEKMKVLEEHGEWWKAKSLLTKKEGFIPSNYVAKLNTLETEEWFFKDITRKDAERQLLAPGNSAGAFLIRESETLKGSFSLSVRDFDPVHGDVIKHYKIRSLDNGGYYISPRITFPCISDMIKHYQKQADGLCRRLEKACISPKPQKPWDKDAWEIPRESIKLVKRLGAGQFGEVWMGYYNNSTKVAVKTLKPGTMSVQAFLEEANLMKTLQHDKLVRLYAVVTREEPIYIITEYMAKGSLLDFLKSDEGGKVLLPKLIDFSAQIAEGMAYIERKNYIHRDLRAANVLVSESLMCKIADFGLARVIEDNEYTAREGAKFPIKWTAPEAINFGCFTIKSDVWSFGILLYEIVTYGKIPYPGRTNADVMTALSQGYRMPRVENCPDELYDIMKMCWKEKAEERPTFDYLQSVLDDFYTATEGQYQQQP
Protocol: as §1

EGFR = EGFR (Homo sapiens (Human), UniProt P00533); assay: EGFR kinase assay
EGFR, sequence (P00533 25-1210, species assumed): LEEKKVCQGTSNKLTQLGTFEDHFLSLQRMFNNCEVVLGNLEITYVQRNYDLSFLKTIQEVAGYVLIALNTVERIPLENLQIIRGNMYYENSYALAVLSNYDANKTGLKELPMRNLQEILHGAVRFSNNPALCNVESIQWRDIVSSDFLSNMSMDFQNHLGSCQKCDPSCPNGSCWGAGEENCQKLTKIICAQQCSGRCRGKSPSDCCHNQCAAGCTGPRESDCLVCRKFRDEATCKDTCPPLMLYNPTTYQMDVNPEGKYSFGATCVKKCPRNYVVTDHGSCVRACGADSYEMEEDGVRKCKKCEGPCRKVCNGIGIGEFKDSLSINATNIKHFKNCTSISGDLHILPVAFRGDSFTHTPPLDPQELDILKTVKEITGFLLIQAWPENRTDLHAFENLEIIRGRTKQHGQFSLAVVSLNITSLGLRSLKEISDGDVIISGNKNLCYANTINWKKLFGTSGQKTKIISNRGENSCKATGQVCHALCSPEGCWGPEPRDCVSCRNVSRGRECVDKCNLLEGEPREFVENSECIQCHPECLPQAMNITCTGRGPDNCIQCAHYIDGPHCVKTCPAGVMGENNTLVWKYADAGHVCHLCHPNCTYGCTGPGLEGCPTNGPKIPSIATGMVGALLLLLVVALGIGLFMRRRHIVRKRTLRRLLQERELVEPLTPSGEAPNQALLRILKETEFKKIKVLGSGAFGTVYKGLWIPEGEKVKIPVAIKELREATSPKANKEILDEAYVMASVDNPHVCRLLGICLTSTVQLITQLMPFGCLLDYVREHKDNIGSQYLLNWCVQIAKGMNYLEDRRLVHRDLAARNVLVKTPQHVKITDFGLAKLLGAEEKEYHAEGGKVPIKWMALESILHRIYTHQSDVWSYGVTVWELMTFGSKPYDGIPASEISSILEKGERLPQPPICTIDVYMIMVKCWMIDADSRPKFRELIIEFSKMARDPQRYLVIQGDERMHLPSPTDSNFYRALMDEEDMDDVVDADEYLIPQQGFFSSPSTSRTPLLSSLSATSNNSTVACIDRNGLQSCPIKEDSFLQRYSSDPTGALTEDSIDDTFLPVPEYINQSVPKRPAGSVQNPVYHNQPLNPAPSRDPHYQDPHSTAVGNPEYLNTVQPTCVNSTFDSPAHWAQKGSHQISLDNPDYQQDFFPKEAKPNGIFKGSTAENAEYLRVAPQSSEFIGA
Protocol: Btk Kinase Assay and Other Kinases Assay Btk kinase activity was determined using a homogenous time resolved fluorescence (HTRF) methodology. Measurements were performed in a reaction volume of 15 μL using 384-well assay plates. Kinase enzyme, inhibitor, ATP and 1 μM peptide substrate were incubated in a reaction buffer compose of Hepes 50 mM (pH7.0), NaN3 0.02%, BSA 0.01%, Orthocanadate 0.1 mM. After one hour, the kinase reaction was quenched by the addition of […] antibody and XL-665 in 1×Detection buffer containing 60 mM EDTA (Cisbio), and the mixture was allowed to incubate for one hour. The HTRF signal was measured on a multimode plate reader (EnVision® Multilabel Reader, Perkin Elmer) with an excitation wavelength (λEx) of 330 nm and detection wavelengths (λEm) of 615 and 665 nm. Activity was determined by the ratio of the fluorescence at 665 nm to that at 615 nm. For each compound, enzyme activity as measured at various concentrations of compound, Negative control reactions were performed in the absence of inhibitor in two replicates and eight no enzyme controls were used to determine baseline fluorescence levels. I[…] were obtained according to the equation: […]

BLK = BLK (Homo sapiens (Human), UniProt P51451); assay: BLK kinase assay (HTRF); settings: [ATP]=20 μM, BLK=0.6 nM
BLK, sequence (P51451 whole entry, species assumed): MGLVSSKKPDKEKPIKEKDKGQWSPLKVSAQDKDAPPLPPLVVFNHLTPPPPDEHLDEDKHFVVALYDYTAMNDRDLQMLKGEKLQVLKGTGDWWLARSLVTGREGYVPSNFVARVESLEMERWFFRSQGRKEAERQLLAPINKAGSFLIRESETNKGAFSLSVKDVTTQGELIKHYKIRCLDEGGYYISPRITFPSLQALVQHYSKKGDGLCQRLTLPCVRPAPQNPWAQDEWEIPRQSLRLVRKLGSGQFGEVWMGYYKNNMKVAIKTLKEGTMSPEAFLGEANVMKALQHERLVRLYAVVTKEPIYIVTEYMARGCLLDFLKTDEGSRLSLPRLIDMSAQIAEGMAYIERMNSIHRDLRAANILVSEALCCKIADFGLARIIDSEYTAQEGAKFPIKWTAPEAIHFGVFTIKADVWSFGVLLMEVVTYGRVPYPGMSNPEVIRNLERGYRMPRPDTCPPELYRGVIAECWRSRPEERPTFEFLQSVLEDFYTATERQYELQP
Protocol: as §1

LCK, sequence (P06239 whole entry, species assumed): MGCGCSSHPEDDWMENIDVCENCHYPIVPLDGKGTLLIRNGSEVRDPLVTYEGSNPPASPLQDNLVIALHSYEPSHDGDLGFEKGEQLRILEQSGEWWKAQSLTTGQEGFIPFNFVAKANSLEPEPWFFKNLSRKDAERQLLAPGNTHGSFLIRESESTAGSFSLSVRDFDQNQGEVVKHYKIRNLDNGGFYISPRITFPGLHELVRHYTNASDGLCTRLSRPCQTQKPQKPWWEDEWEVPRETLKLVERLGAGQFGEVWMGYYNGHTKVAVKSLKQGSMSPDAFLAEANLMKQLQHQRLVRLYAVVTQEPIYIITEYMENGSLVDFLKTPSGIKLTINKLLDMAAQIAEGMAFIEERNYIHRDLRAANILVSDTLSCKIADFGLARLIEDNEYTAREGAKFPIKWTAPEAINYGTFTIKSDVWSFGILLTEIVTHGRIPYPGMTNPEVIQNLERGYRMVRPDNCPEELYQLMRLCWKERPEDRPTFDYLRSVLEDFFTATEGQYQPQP

| SMILES | IC50 (LCK) | IC50 (BTK; read-out: BTK IC50) | IC50 (BTK; read-out: BTK Inhibition) | IC50 (LYN) | IC50 (EGFR) | IC50 (BLK) |
| --- | --- | --- | --- | --- | --- | --- |
| C=CC(=O)N1CCC[C@@H](n2nc(-c3ccc(Oc4cccc(OC)c4F)cc3)c3cncc(OC)c32)C1 [Compound 6, (R)-1-(3-(3-(4-(2-fluoro-3-methoxyphenoxy)phenyl)-7-methoxy-1H-pyrazolo[4,3-c]pyridin-1-yl)piperidin-1-yl)prop-2-en-1-one] | 1 to 10 µM | < 10 nM | < 10 nM | 1 to 10 µM | 100 to 1000 nM | 10 to 100 nM |
| C=CC(=O)N1CC[C@@H](n2nc(-c3ccc(Oc4ccccc4)cc3)c3cnccc32)C1 [Compound 1, (R)-1-(3-(3-(4-phenoxyphenyl)-1H-pyrazolo[4,3-c]pyridin-1-yl)pyrrolidin-1-yl)prop-2-en-1-one] | 1 to 10 µM | < 10 nM | < 10 nM | ≤ 10 µM | 100 to 1000 nM | < 10 nM |
